According to patent US10448639B2, “Fungicidal pyrazoles” (FMC CORPORATION, priority 2009, dated 2019):
Marks after values point to notes of the source that are not given here.

Tests used:
[1] = test system: Puccinia recondita f. sp. tritici; experiment: Test I: wheat leaf rust, preventive spray on wheat seedlings, visual disease rating; details: wheat leaf rust; for Test I rating (% disease control) / Test I disease control rating: 100 = 100% disease control; for Test I disease control rating: sprayed the day before inoculation, 0 = no disease control relative to controls
[2] = test system: Botrytis cinerea; experiment: Test B: tomato Botrytis, preventive spray on tomato seedlings, visual disease rating; details: tomato Botrytis; for Test B rating (% disease control) / Test B disease control rating: 100 = 100% disease control; for Test B disease control rating: 0 = no disease control relative to controls
[3] = test system: Septoria tritici; experiment: Test G: wheat leaf blotch, preventive spray on wheat seedlings, visual disease rating; details: wheat leaf blotch; for Test G rating (% disease control) / Test G disease control rating: 100 = 100% disease control; for Test G disease control rating: sprayed the day before inoculation, 0 = no disease control relative to controls
[4] = test system: Alternaria solani; experiment: Test C: tomato early blight, preventive spray on tomato seedlings, visual disease rating; details: tomato early blight; for Test C rating (% disease control) / Test C disease control rating: 100 = 100% disease control; for Test C disease control rating: 0 = no disease control relative to controls
[5] = test system: Erysiphe graminis f sp. tritici; experiment: Test J: wheat powdery mildew, preventive spray on wheat seedlings, visual disease rating; details: wheat powdery mildew; for Test J rating (% disease control) / Test J disease control rating: 100 = 100% disease control; for Test J disease control rating: sprayed the day before inoculation, 0 = no disease control relative to controls
[6] = test system: Septoria nodorum; experiment: Test F: Septoria glume blotch, preventive spray on wheat seedlings, visual disease rating; details: for Test F rating (% disease control) / Test F disease control rating: 100 = 100% disease control; for Test F disease control rating: 0 = no disease control relative to controls
[7] = test system: Puccinia recondita f. sp. tritici; experiment: Test H: wheat leaf rust, curative spray on inoculated wheat seedlings, visual disease rating; details: wheat leaf rust; for Test H rating (% disease control) / Test H disease control rating: 100 = 100% disease control; for Test H disease control rating: sprayed after inoculation, 0 = no disease control relative to controls
[8] = preventive, 0 = no control relative to controls
[9] = 0 = no control relative to controls
[10] = Septoria glume blotch, 0 = no control relative to controls
[11] = curative, 0 = no control relative to controls
[12] = preventive spray, 0 = no control
[13] = Septoria glume blotch on wheat, preventive spray, 0 = no control
[14] = rating marked with asterisk (*), meaning not given

Cc1nn(C)c(Oc2ccc(F)cc2C#N)c1-c1ccc(F)cc1Cl [compound 149]
Test I rating (% disease control) [1, 8]: 100% | Test B rating (% disease control) [2, 9]: 100% | Test G rating (% disease control) [3, 9]: 100% | Test C rating (% disease control) [4, 9]: 98% | Test J rating (% disease control) [5, 9]: 100% | Test F rating (% disease control) [6, 10]: 100% | Test H rating (% disease control) [7, 11]: 99%

Cc1nn(C)c(Nc2c(F)cc(F)cc2F)c1-c1ccc(Cl)cc1Cl [compound 75]
Test I rating (% disease control) [1, 12]: 99% | Test B rating (% disease control) [2, 12]: 100% | Test G rating (% disease control) [3, 12]: 99% | Test C rating (% disease control) [4, 12]: 98% | Test J rating (% disease control) [5, 12]: 97% | Test F rating (% disease control) [6, 13]: 98% | Test H rating (% disease control) ([7]; curative spray, 0 = no control): 95%

Cc1nn(C)c(Oc2ccc(C#N)c(C#N)c2)c1-c1c(F)cc(F)cc1F [compound 169]
Test I rating (% disease control) [1, 8]: 0% | Test B rating (% disease control) [2, 9]: 24% | Test G rating (% disease control) [3, 9]: 85% | Test C rating (% disease control) [4, 9]: 0% | Test J rating (% disease control) [5, 9]: 0% | Test F rating (% disease control) [6, 10]: 0% | Test H rating (% disease control) [7, 11]: 0%

Cc1nn(C)c(Nc2c(Cl)cc(F)cc2Cl)c1-c1c(Cl)cccc1Cl [compound 341]
Test I disease control rating [1]: 99% | Test B disease control rating [2]: 99% | Test G disease control rating [3]: 99% | Test C disease control rating [4]: 0% | Test J disease control rating [5]: 93% | Test F disease control rating ([6]; Septoria glume blotch on wheat): 0% | Test H disease control rating [7]: 0%

COc1cc(F)c(-c2c(C)nn(C)c2Oc2ccc(C)c(OC)c2)c(F)c1 [compound 249]
Test I rating (% disease control) [1, 8]: 96% | Test B rating (% disease control) [2, 9]: 40% | Test G rating (% disease control) [3, 9]: 99% | Test C rating (% disease control) [4, 9]: 0% | Test J rating (% disease control) [5, 9]: 100% | Test F rating (% disease control) [6, 10]: 0% | Test H rating (% disease control) [7, 11]: 0%

COc1cc(F)c(-c2c(C)nn(C)c2Nc2ncc(Cl)cc2Cl)c(F)c1 [compound 102]
Test I rating (% disease control) [1, 12]: 100% | Test B rating (% disease control) [2, 12]: 100% | Test G rating (% disease control) [3, 12]: 99% | Test C rating (% disease control) [4, 12]: 100% | Test J rating (% disease control) [5, 12]: 98% | Test F rating (% disease control) [6, 13]: 98% | Test H rating (% disease control) ([7]; curative spray, 0 = no control): 0%

Cc1nn(C)c(Nc2ccc(F)cc2F)c1-c1ccc(C#N)cc1Cl [compound 331]
Test I disease control rating [1]: 100% | Test B disease control rating [2]: 100% | Test G disease control rating [3]: 100% | Test C disease control rating [4]: 80% | Test J disease control rating [5]: 97% | Test F disease control rating ([6]; Septoria glume blotch on wheat): 73% | Test H disease control rating [7]: 8%

Cc1nn(C)c(Nc2cc(Cl)ccc2Cl)c1-c1c(F)cc(C#N)cc1F [compound 146]
Test I rating (% disease control) [1, 12]: 97% | Test B rating (% disease control) [2, 12]: 99% | Test G rating (% disease control) [3, 12]: 99% | Test C rating (% disease control) [4, 12]: 0% | Test J rating (% disease control) [5, 12]: 56% | Test F rating (% disease control) [6, 13]: 0% | Test H rating (% disease control) ([7]; curative spray, 0 = no control): 0%

Cc1nn(C)c(Nc2ccc(F)cc2)c1-c1c(F)cccc1C(F)(F)F [compound 254]
Test I rating (% disease control) [1, 8]: 0% | Test B rating (% disease control) [2, 9]: 100% | Test G rating (% disease control) [3, 9]: 84% | Test C rating (% disease control) [4, 9]: 0% | Test J rating (% disease control) [5, 9]: 64% | Test F rating (% disease control) [6, 10]: 0% | Test H rating (% disease control) [7, 11]: 0%

Cc1nn(C)c(Nc2ccc(F)cc2F)c1-c1c(F)cc(O)cc1F [compound 103]
Test I rating (% disease control) [1, 12]: 91% | Test B rating (% disease control) [2, 12]: 100% | Test G rating (% disease control) [3, 12]: 95% | Test C rating (% disease control) [4, 12]: 64% | Test J rating (% disease control) [5, 12]: 0% | Test F rating (% disease control) [6, 13]: 0% | Test H rating (% disease control) ([7]; curative spray, 0 = no control): 0%

Cc1nn(CC(=O)O)c(Oc2c(F)cc([N+](=O)[O-])cc2F)c1-c1c(F)cc(F)cc1F [compound 68]
Test I rating (% disease control) [1, 12]: 0% | Test B rating (% disease control) [2, 12]: 0% | Test G rating (% disease control) [3, 12]: 0% | Test C rating (% disease control) [4, 12]: 0% | Test J rating (% disease control) [5, 12]: 0% | Test F rating (% disease control) [6, 13]: 0% | Test H rating (% disease control) ([7]; curative spray, 0 = no control): 6%

COc1cc(F)c(Nc2c(-c3ccc(F)cc3F)c(C)nn2C)c(F)c1 [compound 42]
Test I rating (% disease control) [1, 12]: 94% | Test B rating (% disease control) [2, 12]: 100% | Test G rating (% disease control) [3, 12]: 93% | Test C rating (% disease control) [4, 12]: 0% | Test J rating (% disease control) [5, 12]: 82% | Test F rating (% disease control) [6, 13]: 0% | Test H rating (% disease control) ([7]; curative spray, 0 = no control): 0%

Cc1nn(C)c(Nc2ccc(C#N)cc2F)c1-c1c(F)cccc1F [compound 196]
Test I rating (% disease control) [1, 8]: 98% | Test B rating (% disease control) [2, 9]: 99% | Test G rating (% disease control) [3, 9]: 100% | Test C rating (% disease control) [4, 9]: 94% | Test J rating (% disease control) [5, 9]: 98% | Test F rating (% disease control) [6, 10]: 73% | Test H rating (% disease control) [7, 11]: 9%

COc1cc(F)c(-c2c(C)nn(C)c2Oc2ccc(C)c(F)c2)c(F)c1 [compound 188]
Test I rating (% disease control) [1, 8]: 97% | Test B rating (% disease control) [2, 9]: 87% | Test G rating (% disease control) [3, 9]: 100% | Test C rating (% disease control) [4, 9]: 0% | Test J rating (% disease control) [5, 9]: 97% | Test F rating (% disease control) [6, 10]: 0% | Test H rating (% disease control) [7, 11]: 0%

Cc1nn(C)c(Nc2cccc(F)c2F)c1-c1c(F)cccc1F [compound 198]
Test I rating (% disease control) [1, 8]: 94% | Test B rating (% disease control) [2, 9]: 97% | Test G rating (% disease control) [3, 9]: 100% | Test C rating (% disease control) [4, 9]: 68% | Test J rating (% disease control) [5, 9]: 97% | Test F rating (% disease control) [6, 10]: 0% | Test H rating (% disease control) [7, 11]: 0%

COc1cc(F)c(Nc2c(-c3cccc(F)c3F)c(C)nn2C)c(F)c1 [compound 204]
Test I rating (% disease control), marked * ([1]; preventive, rating marked with asterisk (*), meaning not given): 86* % | Test B rating (% disease control), marked * [2, 14]: 100* % | Test G rating (% disease control), marked * [3, 14]: 99* % | Test C rating (% disease control), marked * [4, 14]: 77* % | Test J rating (% disease control), marked * [5, 14]: 99* % | Test F rating (% disease control), marked * ([6]; Septoria glume blotch, rating marked with asterisk (*), meaning not given): 0* % | Test H rating (% disease control), marked * ([7]; curative, rating marked with asterisk (*), meaning not given): 0* %

CCOc1ccc(Nc2c(-c3ccc(F)cc3Cl)c(C)nn2C)c(Cl)c1 [compound 325]
Test I disease control rating [1]: 97% | Test B disease control rating [2]: 100% | Test G disease control rating [3]: 100% | Test C disease control rating [4]: 0% | Test J disease control rating [5]: 99% | Test F disease control rating ([6]; Septoria glume blotch on wheat): 0% | Test H disease control rating [7]: 0%

Cc1nn(C)c(Nc2cccc(Cl)c2)c1-c1c(F)cc(C#N)cc1F [compound 115]
Test I rating (% disease control) [1, 12]: 91% | Test B rating (% disease control) [2, 12]: 99% | Test G rating (% disease control) [3, 12]: 100% | Test C rating (% disease control) [4, 12]: 0% | Test J rating (% disease control) [5, 12]: 0% | Test F rating (% disease control) [6, 13]: 0% | Test H rating (% disease control) ([7]; curative spray, 0 = no control): 0%

Cc1nn(C)c(Nc2cc(Cl)ccc2F)c1-c1c(F)cc(C#N)cc1F [compound 142]
Test I rating (% disease control) [1, 12]: 95% | Test B rating (% disease control) [2, 12]: 33% | Test G rating (% disease control) [3, 12]: 99% | Test C rating (% disease control) [4, 12]: 13% | Test J rating (% disease control) [5, 12]: 90% | Test F rating (% disease control) [6, 13]: 20% | Test H rating (% disease control) ([7]; curative spray, 0 = no control): 0%

Cc1nn(C)c(Nc2ncc(Cl)cc2Cl)c1-c1ccccc1C(F)(F)F [compound 251]
Test I rating (% disease control) [1, 8]: 86% | Test B rating (% disease control) [2, 9]: 99% | Test G rating (% disease control) [3, 9]: 98% | Test C rating (% disease control) [4, 9]: 0% | Test J rating (% disease control) [5, 9]: 100% | Test F rating (% disease control) [6, 10]: 0% | Test H rating (% disease control) [7, 11]: 0%
